Among the data in patent US5614497A, “Peptide, production and use thereof” (Takeda Chemical Industries, Ltd., priority 1991, dated 1997) are IC50 values, retold here.

This test deals with endothelin receptors. Nature of the test: Receptor Binding Assay (displacement of radioactive-iodine-labeled endothelin-1 from swine heart membrane fraction). Particulars: membrane fraction prepared from swine heart; endothelin-1 labeled with radioactive iodine; incubation at 25° C, 1 hour. As to the method:
The membrane fraction prepared from swine heart was diluted to 0.15 mg/ml with an assaying buffer and dispensed to assaying tubes at 100 μl per tube. To this membrane fraction suspension were added 2 μl of a solution of endothelin-1labeled with 5 nM radioactive iodine and 3 μl of a 50% dimethylsulfoxide solution of the subject peptide, followed by incubation at 25° C. After 1 hour, the suspension was diluted with 900 μl of an ice-cooled assaying buffer and centrifuged at 12,000×G for 10 minutes to separate supernatant and precipitate. The precipitate contained cell membranes and endothelin receptors embedded therein. The receptor-bound endothelin, labeled with radioactive iodine, was also recovered in the precipitate. The radioactive iodine in this precipitate was counted, using a gamma ray counter, to determine the amount of radioactive-iodine-labeled endothelin bound to the endothelin receptors. The results of the quantitative determination are shown in IC50 (M) below.

*1 amine or outer side, *2 acyl side, *3 side chain or, on linkers, in order; H or OH if unused. Where a SMILES comes first, the peptide text is derived from it. [ ]: non-standard residue; d: D form. The star is where a group is joined. Tyr(3-F) = N[C@@H](Cc1ccc(O)c(F)c1)C(=O)O; Tyr(3-I) = N[C@@H](Cc1ccc(O)c(I)c1)C(=O)O; Phe(4-F) = N[C@@H](Cc1ccc(F)cc1)C(=O)O; Boc = CC(C)(C)OC(=O)*; CO = O=C([*:1])[*:2]; Ahx = NCCCCCC(=O)O; X1 = C1CCCN(*)CC1; βAla = NCCC(=O)O

As to `CC(C)C[C@H](NC(=O)OC(C)(C)C)C(=O)N[C@H](Cc1c[nH]c2ccccc12)C(=O)N[C@H](C)C(=O)NCCC(=O)N[C@@H](Cc1ccc(O)cc1)C(=O)N[C@@H](Cc1ccccc1)C(=O)O` [Example 2, Boc-Leu-(D)Trp-(D)Ala-βAla-Tyr-Phe-OH] (Boc-L[dW][dA][βAla]YF-OH), the 50% inhibitory concentration (IC50) (as a rule, the concentration that gives 50% inhibition) worked out at 9 nM.
Next, `CC(C)C[C@H](NC(=O)OC(C)(C)C)C(=O)N[C@H](Cc1c[nH]c2ccccc12)C(=O)N[C@H](C)C(=O)NCCCCCC(=O)N[C@@H](Cc1ccc(O)cc1)C(=O)N[C@@H](Cc1ccccc1)C(=O)O` [Example 5, Boc-Leu-(D)Trp-(D)Ala-εAhx-Tyr-Phe-OH] (Boc-L[dW][dA][Ahx]YF-OH): 7.2 nM.
Next, `CC(C)C[C@H](NC(=O)N1CCCCCC1)C(=O)N[C@H](Cc1c[nH]c2ccccc12)C(=O)N[C@H](C)C(=O)NCCC(=O)N[C@@H](Cc1ccc(O)c(I)c1)C(=O)N[C@H](Cc1ccccc1)C(=O)O` [Example 43, Hexamethyleneimino-CO-Leu-(D)Trp-(D)Ala-βAla-Tyr(I)-(D)Phe-OH] ({X1-CO}-L[dW][dA][βAla][Tyr(3-I)][dF]-OH): 0.71 nM; `CC(C)C[C@H](NC(=O)OC(C)(C)C)C(=O)N[C@H](Cc1c[nH]c2ccccc12)C(=O)N[C@H](C)C(=O)NCCC(=O)N[C@@H](Cc1ccc(O)c(F)c1)C(=O)N[C@@H](Cc1ccc(F)cc1)C(=O)O` [Example 38, Boc-Leu-(D)Trp-(D)Ala-βAla-(m-F)Tyr-(p-F)Phe-OH] (Boc-L[dW][dA][βAla][Tyr(3-F)][Phe(4-F)]-OH): 60 nM.
Then `CC(C)C[C@H](NC(=O)OC(C)(C)C)C(=O)N[C@H](Cc1c[nH]c2ccccc12)C(=O)N[C@H](C)C(=O)NCCC(=O)N[C@@H](Cc1ccc(O)cc1)C(=O)N[C@H](Cc1ccccc1)C(=O)O` [Example 1, Boc-Leu-(D)Trp-(D)Ala-βAla-Tyr-(D)Phe-OH] (Boc-L[dW][dA][βAla]Y[dF]-OH), with 4.6 nM; and `CC(C)C[C@H](NC(=O)OC(C)(C)C)C(=O)N[C@H](Cc1c[nH]c2ccccc12)C(=O)N[C@H](C)C(=O)NCCC(=O)N[C@H](CC(C)C)C(=O)O` [Reference Example 2, Boc-Leu-(D)Trp-(D)Ala-βAla-(D)Leu--OH, reference compound] (Boc-L[dW][dA][βAla][dL]-OH), with 420 nM.
Turning to `CC(C)C[C@H](NC(=O)OC(C)(C)C)C(=O)N[C@H](Cc1c[nH]c2ccccc12)C(=O)N[C@H](C)C(=O)NCCC(=O)N[C@@H](CCC(=O)O)C(=O)O` [Reference Example 1, Boc-Leu-(D)Trp-(D)Ala-βAla-Glu--OH, reference compound] (Boc-L[dW][dA][βAla]E-OH), the IC50 was determined as 700 nM.
Consider `CC(C)C[C@H](NC(=O)N1CCCCCC1)C(=O)N[C@H](Cc1c[nH]c2ccccc12)C(=O)N[C@H](C)C(=O)NCCC(=O)N[C@@H](Cc1ccc(O)cc1)C(=O)N[C@H](Cc1ccccc1)C(=O)O` [Example 39, hexamethyleneimino-CO-Leu-(D)Trp-(D)Ala-βAla-Tyr-(D)Phe-OH] ({X1-CO}-L[dW][dA][βAla]Y[dF]-OH), for which the IC50 came out at 0.34 nM.
